How the values were obtained:
[1] = system: Mycobacterium tuberculosis; experiment: Antitubercular activity against Mycobacterium tuberculosis H37Rv incubated for 5 days by microtiter plate method; type: functional; conditions: 120 h, time 5 day
[2] = Acute toxicity in Albino mouse assessed as change in serum urea level at 50 to 2000 mg/kg, po measured after 14 days (reference value: 46 mg/dl); type: organism-based; conditions: in vivo, 336 h, dose 50-2000 mg/kg, time 14 day
[3] = Hepatotoxicity in Albino mouse assessed as change in portal tracks at 50 to 2000 mg/kg, po measured after 14 days; type: toxicity, organism-based; conditions: in vivo, 336 h, dose 50-2000 mg/kg, time 14 day
[4] = Hepatotoxicity in Albino mouse assessed as change in hepatic artery at 50 to 2000 mg/kg, po measured after 14 days; type: toxicity, organism-based, Liver; conditions: in vivo, 336 h, dose 50-2000 mg/kg, time 14 day
[5] = Acute toxicity in po dosed Albino mouse assessed as mortality after 14 days; type: organism-based; conditions: in vivo, time 14 day
[6] = Acute toxicity in Albino mouse assessed as change in monocytes at 50 to 2000 mg/kg, po measured after 14 days (reference value: 1%); type: organism-based; conditions: in vivo, 336 h, dose 50-2000 mg/kg, time 14 day
[7] = Cytotoxicity against african green monkey Vero cells by MTT assay; type: toxicity, cell-based; conditions: chlorocebus sabaeus
[8] = Renal toxicity in Albino mouse assessed as extravasation of RBC at 50 to 2000 mg/kg, po measured after 14 days; type: organism-based, Erythrocyte; conditions: in vivo, 336 h, dose 50-2000 mg/kg, time 14 day
[9] = Pulmonary toxicity in Albino mouse assessed as change in bronchi structure at 50 to 2000 mg/kg, po measured after 14 days; type: organism-based; conditions: in vivo, 336 h, dose 50-2000 mg/kg, time 14 day
[10] = Acute toxicity in Albino mouse assessed as change in ALP level at 50 to 2000 mg/kg, po measured after 14 days (reference value: 28 IU/L); type: organism-based; conditions: in vivo, 336 h, dose 50-2000 mg/kg, time 14 day
[11] = Pulmonary toxicity in Albino mouse assessed as change in alveolar sacs at 50 to 2000 mg/kg, po measured after 14 days; type: organism-based; conditions: in vivo, 336 h, dose 50-2000 mg/kg, time 14 day
[12] = Acute toxicity in Albino mouse assessed as change in platelet count at 50 to 2000 mg/kg, po measured after 14 days (reference value: 3.24 mm3); type: organism-based; parameters: unit not given here; conditions: in vivo, 336 h, dose 50-2000 mg/kg, time 14 day
[13] = Acute toxicity in Albino mouse assessed as change in SGPT count at 50 to 2000 mg/kg, po measured after 14 days (reference value: 52 IU/L); type: organism-based; conditions: in vivo, 336 h, dose 50-2000 mg/kg, time 14 day
[14] = Renal toxicity in Albino mouse assessed as change in proximal convoluted tubules at 50 to 2000 mg/kg, po measured after 14 days; type: organism-based; conditions: in vivo, 336 h, dose 50-2000 mg/kg, time 14 day
[15] = Acute toxicity in Albino mouse assessed as change in lymphocytes at 50 to 2000 mg/kg, po measured after 14 days (reference value: 21%); type: organism-based; conditions: in vivo, 336 h, dose 50-2000 mg/kg, time 14 day
[16] = Acute toxicity in Albino mouse assessed as change in eosinophils at 50 to 2000 mg/kg, po measured after 14 days (reference value: 3%); type: organism-based; conditions: in vivo, 336 h, dose 50-2000 mg/kg, time 14 day
[17] = Acute toxicity in Albino mouse assessed as change in RBC count measured per million cells at 50 to 2000 mg/kg, po measured after 14 days (reference value: 9.15 microL); type: organism-based, Erythrocyte; conditions: in vivo, 336 h, dose 50-2000 mg/kg, time 14 day
[18] = Renal toxicity in Albino mouse assessed as change in renal tubules at 50 to 2000 mg/kg, po measured after 14 days; type: organism-based; conditions: in vivo, 336 h, dose 50-2000 mg/kg, time 14 day
[19] = Acute toxicity in Albino mouse assessed as mortality at 50 mg/kg, po after 14 days; type: organism-based; conditions: in vivo, 336 h, time 14 day
[20] = Acute toxicity in Albino mouse assessed as change in total leucocyte count at 50 to 2000 mg/kg, po measured after 14 days (reference value: 7400 mm3); type: organism-based; conditions: in vivo, 336 h, dose 50-2000 mg/kg, time 14 day
[21] = Renal toxicity in Albino mouse assessed as structural absorbability abnormalities at 50 to 2000 mg/kg, po measured after 14 days; type: organism-based; conditions: in vivo, 336 h, dose 50-2000 mg/kg, time 14 day
[22] = Acute toxicity in Albino mouse assessed as change in LDH level at 50 to 2000 mg/kg, po measured after 14 days (reference value: 1052 IU/L); type: organism-based; conditions: in vivo, 336 h, dose 50-2000 mg/kg, time 14 day
[23] = Pulmonary toxicity in Albino mouse assessed as appearance of cilia at 50 to 2000 mg/kg, po measured after 14 days; type: organism-based; conditions: in vivo, 336 h, dose 50-2000 mg/kg, time 14 day
[24] = Cytotoxicity against african green monkey Vero cells assessed as cell viability at 100 ug/ml by MTT assay; type: toxicity, cell-based; conditions: chlorocebus sabaeus, at 100 µg/mL, read-out: Activity
[25] = Hepatotoxicity in Albino mouse assessed as change in central vein at 50 to 2000 mg/kg, po measured after 14 days; type: toxicity, organism-based; conditions: in vivo, 336 h, dose 50-2000 mg/kg, time 14 day
[26] = Acute toxicity in Albino mouse assessed as mortality at 300 mg/kg, po after 5 to 8 hrs; type: organism-based; conditions: in vivo, time 5-8 hrs
[27] = Hepatotoxicity in Albino mouse assessed as change in hepatocytes at 50 to 2000 mg/kg, po measured after 14 days; type: toxicity, organism-based; conditions: in vivo, 336 h, dose 50-2000 mg/kg, time 14 day
[28] = Pulmonary toxicity in Albino mouse assessed as change in squamous pneumocytes at 50 to 2000 mg/kg, po measured after 14 days; type: organism-based; conditions: in vivo, 336 h, dose 50-2000 mg/kg, time 14 day
[29] = Pulmonary toxicity in Albino mouse assessed as appearance of goblet cells at 50 to 2000 mg/kg, po measured after 14 days; type: organism-based; conditions: in vivo, 336 h, dose 50-2000 mg/kg, time 14 day
[30] = Acute toxicity in Albino mouse assessed as change in neutrophils at 50 to 2000 mg/kg, po measured after 14 days (reference value: 75%); type: organism-based; conditions: in vivo, 336 h, dose 50-2000 mg/kg, time 14 day
[31] = Acute toxicity in Albino mouse assessed as change in hemoglobin level at 50 to 2000 mg/kg, po measured after 14 days (reference value: 12.8 g/dl); type: organism-based; conditions: in vivo, 336 h, dose 50-2000 mg/kg, time 14 day
[32] = Cytotoxicity against african green monkey Vero cells assessed as cell viability at 12.5 ug/ml by MTT assay; type: toxicity, cell-based; conditions: chlorocebus sabaeus, at 12.5 µg/mL, read-out: Activity
[33] = Acute toxicity in Albino mouse assessed as change in ESR at 50 to 2000 mg/kg, po measured after 14 days (reference value: 10 millimeter); type: organism-based; conditions: in vivo, 336 h, dose 50-2000 mg/kg, time 14 day
[34] = Acute toxicity in Albino mouse assessed as change in serum creatine level at 50 to 2000 mg/kg, po measured after 14 days (reference value: 0.9 mg/dl); type: organism-based; conditions: in vivo, 336 h, dose 50-2000 mg/kg, time 14 day
[35] = Renal toxicity in Albino mouse assessed as change in distal convoluted tubules at 50 to 2000 mg/kg, po measured after 14 days; type: organism-based; conditions: in vivo, 336 h, dose 50-2000 mg/kg, time 14 day
[36] = Hepatotoxicity in Albino mouse assessed as change in bile duct at 50 to 2000 mg/kg, po measured after 14 days; type: toxicity, organism-based, Liver; conditions: in vivo, 336 h, dose 50-2000 mg/kg, time 14 day
[37] = Renal toxicity in Albino mouse assessed as change in tubular capillaries at 50 to 2000 mg/kg, po measured after 14 days; type: organism-based; conditions: in vivo, 336 h, dose 50-2000 mg/kg, time 14 day
[38] = Acute toxicity in Albino mouse assessed as change in SGOT count at 50 to 2000 mg/kg, po measured after 14 days (reference value: 42 IU/L); type: organism-based; conditions: in vivo, 336 h, dose 50-2000 mg/kg, time 14 day
[39] = Cytotoxicity against african green monkey Vero cells assessed as cell viability at 3.125 ug/ml by MTT assay; type: toxicity, cell-based; conditions: chlorocebus sabaeus, at 3.125 µg/mL, read-out: Activity
[40] = Cytotoxicity against african green monkey Vero cells assessed as cell viability at 25 ug/ml by MTT assay; type: toxicity, cell-based; conditions: chlorocebus sabaeus, at 25 µg/mL, read-out: Activity
[41] = Pulmonary toxicity in Albino mouse assessed as change in alveoli structure at 50 to 2000 mg/kg, po measured after 14 days; type: organism-based; conditions: in vivo, 336 h, dose 50-2000 mg/kg, time 14 day
[42] = Renal toxicity in Albino mouse assessed as change in renal corpuscles at 50 to 2000 mg/kg, po measured after 14 days; type: organism-based; conditions: in vivo, 336 h, dose 50-2000 mg/kg, time 14 day
[43] = Cytotoxicity against african green monkey Vero cells assessed as cell viability at 50 ug/ml by MTT assay; type: toxicity, cell-based; conditions: chlorocebus sabaeus, at 50 µg/mL, read-out: Activity
[44] = Cytotoxicity against african green monkey Vero cells assessed as cell viability at 6.25 ug/ml by MTT assay; type: toxicity, cell-based; conditions: chlorocebus sabaeus, at 6.25 µg/mL, read-out: Activity
[45] = Hepatotoxicity in Albino mouse assessed as change in portal vein at 50 to 2000 mg/kg, po measured after 14 days; type: toxicity, organism-based; conditions: in vivo, 336 h, dose 50-2000 mg/kg, time 14 day
[46] = Acute toxicity in Albino mouse assessed as mortality at 2000 mg/kg, po after 2 to 4 hrs; type: organism-based; conditions: in vivo, time 2-4 hrs
[47] = Renal toxicity in Albino mouse assessed as change in Bowman's capsule at 50 to 2000 mg/kg, po measured after 14 days; type: organism-based; conditions: in vivo, 336 h, dose 50-2000 mg/kg, time 14 day

`CCOc1cc(/C=N/C2=C(Cl)C(=O)c3ccccc3C2=O)ccc1O` gave an MIC [1] of 6.25 µg/mL.
For `O=C1C(Cl)=C(N2C(=O)C(Cl)C2c2ccc(Cl)cc2)C(=O)c2ccccc21` (centres undefined), the Activity [2] was 56.19 mg/dL, the Activity [3] was “Non-Toxic” and the Activity [4] was “Non-Toxic”. The LD50 at 336 h [5] was 50 mg/kg, the Activity [6] was 1% and the Activity [7] was “Dose-Dependent Effect”. The Activity [8] was “Non-Toxic”, the Activity [9] was “Non-Toxic” and the MIC [1] was 7.69 µM. The Activity [10] was 433.93 IU/L, the Activity [11] was “Non-Toxic” and the Activity [12] was 6.1. The Activity [13] was 42.09 IU/L, the Activity [14] was “Non-Toxic” and the Activity [15] was 44%. For the same compound, the Activity [16] was 4%, the Activity [17] was 9.6 and the Activity [18] was “Non-Toxic”. The Activity [19] was “Non-Toxic”, the Activity [20] was 9400 mm3 and the Activity [21] was “Non-Toxic”. For the same compound, the Activity [22] was 134.22 IU/L, the Activity [23] was “Non-Toxic” and the viability at 100 ug/ml [24] was 8.6%. For the same compound, the Activity [25] was “Non-Toxic”, the Activity [26] was “Toxic” and the Activity [27] was “Non-Toxic”. For the same compound, the Activity [28] was “Non-Toxic”, the Activity [29] was “Non-Toxic” and the Activity [30] was 70%. It also gave an Activity [31] of 13.1 g/dL, a viability at 12.5 ug/ml [32] of 69.1% and an Activity [33] of 14 millimeter/hr. The Activity [34] was 0.41 mg/dL, the Activity [35] was “Non-Toxic” and the Activity [36] was “Non-Toxic”. The Activity [37] was “Non-Toxic”, the Activity [38] was 136.54 IU/L and the viability at 3.125 ug/ml [39] was 100%. For the same compound, the viability at 25 ug/ml [40] was 38%, the Activity [41] was “Non-Toxic” and the Activity [42] was “Non-Toxic”. The viability at 50 ug/ml [43] was 24.2%, the viability at 6.25 ug/ml [44] was 100% and the Activity [45] was “Non-Toxic”. The Activity [46] was “Toxic” and the Activity [47] was “Non-Toxic”.
For `O=C1C(Cl)=C(N2C(=O)C(Cl)C2c2cccc([N+](=O)[O-])c2)C(=O)c2ccccc21` (centres undefined), the MIC [1] was 12.5 µg/mL.

Reference: ChEMBL document CHEMBL5500384, “New synergistic benzoquinone scaffolds as inhibitors of mycobacterial cytochrome bc1 complex to treat multi-drug resistant tuberculosis” (Eur J Med Chem, 2024)
